# Columns and labels:
# Test in all cases: cells
# NY = assay type: functional, cell-based; conditions: Homo sapiens
# Description: SANGER: Inhibition of human NY cell growth in a cell viability assay.
# RERF-LC-MS = assay type: functional, cell-based; conditions: Homo sapiens;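 further: growth inhibition of human RERF-LC-MS cells, read out by a cell viability assay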
# Description: SANGER: Inhibition of human RERF-LC-MS cell growth in a cell viability assay.
# CAL-12T = assay type: functional, cell-based, Homo sapiens;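 further: growth inhibition of human CAL-12T cells, read out with a cell viability assay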
# Description: SANGER: Inhibition of human CAL-12T cell growth in a cell viability assay.
# SiHa = assay type: functional, cell-based; conditions: Homo sapiens;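 further: Viability-based readout of growth inhibition in SiHa cells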
# Description: SANGER: Inhibition of human SiHa cell growth in a cell viability assay.
# BFTC-905 = assay type: functional, cell-based; conditions: Homo sapiens
# Description: SANGER: Inhibition of human BFTC-905 cell growth in a cell viability assay.
# NCI-H2030 = assay type: functional, cell-based; conditions: Homo sapiens;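 further: growth inhibition of human NCI-H2030 cells, read out by a cell viability assay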
# Description: SANGER: Inhibition of human NCI-H2030 cell growth in a cell viability assay.
# UO-31 = assay type: functional, cell-based; conditions: Homo sapiens;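 further: cell viability assay measuring inhibition of cell growth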
# Description: SANGER: Inhibition of human U031 cell growth in a cell viability assay.
# GMS-10 = assay type: functional, cell-based; conditions: Homo sapiens;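 further: growth inhibition of GMS-10 cells, read out as cell viability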
# Description: SANGER: Inhibition of human GMS-10 cell growth in a cell viability assay.
# HCC1937 = assay type: functional, cell-based; conditions: Homo sapiens;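 further: growth inhibition measured with a cell viability read-out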
# Description: SANGER: Inhibition of human HCC1937 cell growth in a cell viability assay.
# NCI-H522 = assay type: functional, cell-based; conditions: Homo sapiens;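 further: cell viability assay measuring growth inhibition of human NCI-H522 cells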
# Description: SANGER: Inhibition of human NCI-H522 cell growth in a cell viability assay.
# 786-0 = assay type: functional, cell-based; conditions: Homo sapiens
# Description: SANGER: Inhibition of human 786-0 cell growth in a cell viability assay.
# SK-OV-3 = assay type: functional, cell-based; conditions: Homo sapiens;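 further: growth inhibition of SK-OV-3 human cells, read out with a cell viability assay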
# Description: SANGER: Inhibition of human SK-OV-3 cell growth in a cell viability assay.
# A-375 = assay type: functional, cell-based; conditions: Homo sapiens;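 further: growth inhibition of A375 cells, read out with a cell viability assay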
# Description: SANGER: Inhibition of human A375 cell growth in a cell viability assay.
# SK-MEL-30 = assay type: functional, cell-based; conditions: Homo sapiens;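 further: growth inhibition of SK-MEL-30 cells, determined with a cell viability assay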
# Description: SANGER: Inhibition of human SK-MEL-30 cell growth in a cell viability assay.
# RPMI-2650 = assay type: functional, cell-based; conditions: Homo sapiens
# Description: SANGER: Inhibition of human RPMI-2650 cell growth in a cell viability assay.
# NB12 = assay type: functional, cell-based; conditions: Homo sapiens;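 further: growth inhibition of human NB12 cells, read out by a cell viability assay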
# Description: SANGER: Inhibition of human NB12 cell growth in a cell viability assay.
# SW756 = assay type: functional, cell-based; conditions: Homo sapiens;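 further: growth inhibition of human SW756 cells, read out with a cell viability assay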
# Description: SANGER: Inhibition of human SW756 cell growth in a cell viability assay.
# OVCAR-5 = assay type: functional, cell-based; conditions: Homo sapiens;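 further: growth inhibition of human OVCAR-5 cells, read out with a cell viability assay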
# Description: SANGER: Inhibition of human OVCAR-5 cell growth in a cell viability assay.
# BHY = assay type: functional, cell-based; conditions: Homo sapiens;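 further: cell growth inhibition read out by a viability assay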
# Description: SANGER: Inhibition of human BHY cell growth in a cell viability assay.
# COLO-792 = assay type: functional, cell-based; conditions: Homo sapiens
# Description: SANGER: Inhibition of human COLO-792 cell growth in a cell viability assay.
# Calu-3 = assay type: functional, cell-based; conditions: Homo sapiens;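 further: growth inhibition of human Calu-3 cells, determined with a cell viability assay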
# Description: SANGER: Inhibition of human Calu-3 cell growth in a cell viability assay.
# SNU-449 = assay type: functional, cell-based; conditions: Homo sapiens
# Description: SANGER: Inhibition of human SNU-449 cell growth in a cell viability assay.
# MFE-280 = assay type: functional, cell-based; conditions: Homo sapiens;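 further: growth inhibition of MFE-280 cells, determined with a cell viability readout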
# Description: SANGER: Inhibition of human MFE-280 cell growth in a cell viability assay.
# RD = assay type: functional, cell-based; conditions: Homo sapiens
# Description: SANGER: Inhibition of human RD cell growth in a cell viability assay.
# 647-V = assay type: functional, cell-based; conditions: Homo sapiens;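 further: growth inhibition of 647-V cells, read out with a cell viability assay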
# Description: SANGER: Inhibition of human 647-V cell growth in a cell viability assay.
# VMRC-RCZ = assay type: functional, cell-based; conditions: Homo sapiens;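 further: growth inhibition measured with a cell viability assay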
# Description: SANGER: Inhibition of human VMRC-RCZ cell growth in a cell viability assay.
# HO-1-N-1 = assay type: functional, cell-based; conditions: Homo sapiens;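 further: growth inhibition of human HO-1-N-1 cells, read out with a cell viability assay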
# Description: SANGER: Inhibition of human HO-1-N-1 cell growth in a cell viability assay.
# HN = assay type: functional, cell-based; conditions: Homo sapiens
# Description: SANGER: Inhibition of human HN cell growth in a cell viability assay.
# SW1990 = assay type: functional, cell-based; conditions: Homo sapiens;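 further: cell growth inhibition determined with a viability assay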
# Description: SANGER: Inhibition of human SW1990 cell growth in a cell viability assay.
# NCI-H596 = assay type: functional, cell-based; conditions: Homo sapiens;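 further: growth inhibition of NCI-H596 cells, read out with a cell viability assay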
# Description: SANGER: Inhibition of human NCI-H596 cell growth in a cell viability assay.
# COR-L105 = assay type: functional, cell-based; conditions: Homo sapiens;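 further: cell growth inhibition determined with a viability assay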
# Description: SANGER: Inhibition of human COR-L105 cell growth in a cell viability assay.
# HT-1376 = assay type: functional, cell-based; conditions: Homo sapiens
# Description: SANGER: Inhibition of human HT-1376 cell growth in a cell viability assay.
# NCI-H2170 = assay type: functional, cell-based; conditions: Homo sapiens;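 further: cell viability assay measuring growth inhibition of human NCI-H2170 cancer cells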
# Description: SANGER: Inhibition of human NCI-H2170 cell growth in a cell viability assay.
# ESS-1 = assay type: functional, cell-based; conditions: Homo sapiens;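 further: growth inhibition of human ESS-1 cells, read out by a cell viability assay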
# Description: SANGER: Inhibition of human ESS-1 cell growth in a cell viability assay.
# MDA-MB-231 = assay type: functional, cell-based; conditions: Homo sapiens
# Description: SANGER: Inhibition of human MDA-MB-231 cell growth in a cell viability assay.
# CAL-54 = assay type: functional, cell-based; conditions: Homo sapiens;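 further: growth inhibition of CAL-54 cells, read out by a viability measurement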
# Description: SANGER: Inhibition of human CAL-54 cell growth in a cell viability assay.
# SW626 = assay type: functional, cell-based; conditions: Homo sapiens;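 further: growth inhibition of SW626 cells, measured with a cell viability assay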
# Description: SANGER: Inhibition of human SW626 cell growth in a cell viability assay.
# SK-HEP1 = assay type: functional, cell-based, SK-HEP-1; conditions: Homo sapiens;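 further: cell viability readout used to quantify reduction in proliferation of human SK-HEP-1 cells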
# Description: SANGER: Inhibition of human SK-HEP-1 cell growth in a cell viability assay.
# 8505C = assay type: functional, cell-based; conditions: Homo sapiens
# Description: SANGER: Inhibition of human 8505C cell growth in a cell viability assay.
# HTC-C3 = assay type: functional, cell-based; conditions: Homo sapiens;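 further: inhibition of cell growth, read out with a cell viability assay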
# Description: SANGER: Inhibition of human HTC-C3 cell growth in a cell viability assay.
# LK-2 = assay type: functional, cell-based; conditions: Homo sapiens;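 further: growth inhibition of LK-2 cells, read out with a viability assay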
# Description: SANGER: Inhibition of human LK-2 cell growth in a cell viability assay.
# KYSE-150 cell line = assay type: functional, cell-based; conditions: Homo sapiens;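 further: growth inhibition of human KYSE-150 cells, read out with a cell viability assay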
# Description: SANGER: Inhibition of human KYSE-150 cell growth in a cell viability assay.
# NCI-H2228 = assay type: functional, cell-based; conditions: Homo sapiens;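 further: growth inhibition of human NCI-H2228 cells, read out by a cell viability assay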
# Description: SANGER: Inhibition of human NCI-H2228 cell growth in a cell viability assay.
# HOS = assay type: functional, cell-based; conditions: Homo sapiens;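 further: growth inhibition of human HOS cells, read out with a cell viability assay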
# Description: SANGER: Inhibition of human HOS cell growth in a cell viability assay.
# 769-P = assay type: functional, cell-based; conditions: Homo sapiens
# Description: SANGER: Inhibition of human 769-P cell growth in a cell viability assay.
# CAL-27 = assay type: functional, cell-based; conditions: Homo sapiens;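 further: Viability-based readout, IC50 reflecting inhibition of CAL-27 cell growth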
# Description: SANGER: Inhibition of human CAL-27 cell growth in a cell viability assay.
# MDA-MB-415 = assay type: functional, cell-based; conditions: Homo sapiens
# A 172 = assay type: functional, cell-based; conditions: Homo sapiens;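 further: growth inhibition of A172 cells, measured with a cell viability readout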
# Description: SANGER: Inhibition of human A172 cell growth in a cell viability assay.
# 23132-87 = assay type: functional, cell-based; conditions: Homo sapiens
# Description: SANGER: Inhibition of human 23132-87 cell growth in a cell viability assay.
# D-542MG = assay type: functional, cell-based; conditions: Homo sapiens
# Description: SANGER: Inhibition of human D-542MG cell growth in a cell viability assay.
smiles,measurement,setting,value
Cn1c(=O)n(-c2ccc(C(C)(C)C#N)cc2)c2c3cc(-c4cnc5ccccc5c4)ccc3ncc21 [DACTOLISIB],IC50,NY,1170 nM
same,IC50,RERF-LC-MS,124 nM
same,IC50,"CAL-12T; Homo sapiens, CAL-12T",38.6 nM
same,IC50,SiHa,329 nM
same,IC50,BFTC-905,60.7 nM
same,IC50,NCI-H2030,21.5 nM
same,IC50,UO-31,96.7 nM
same,IC50,GMS-10,174 nM
same,IC50,HCC1937,187 nM
same,IC50,NCI-H522,248 nM
same,IC50,786-0,22.3 nM
same,IC50,SK-OV-3,100 nM
same,IC50,A-375,23.9 nM
same,IC50,SK-MEL-30,196 nM
same,IC50,RPMI-2650,52.7 nM
same,IC50,NB12,528 nM
same,IC50,SW756,555 nM
same,IC50,OVCAR-5,35.5 nM
same,IC50,BHY,42.7 nM
same,IC50,COLO-792,354 nM
same,IC50,Calu-3,72 nM
same,IC50,SNU-449,75.8 nM
same,IC50,MFE-280,9.99 nM
same,IC50,RD,75.9 nM
same,IC50,647-V,78.1 nM
same,IC50,VMRC-RCZ,15.6 nM
same,IC50,HO-1-N-1,25.2 nM
same,IC50,HN,5.96 nM
same,IC50,SW1990,109 nM
same,IC50,NCI-H596,228 nM
same,IC50,COR-L105,15 nM
same,IC50,HT-1376,385 nM
same,IC50,NCI-H2170,115 nM
same,IC50,ESS-1,135 nM
same,IC50,MDA-MB-231,105 nM
same,IC50,CAL-54,238 nM
same,IC50,SW626,176 nM
same,IC50,SK-HEP1,46 nM
same,IC50,8505C,37.5 nM
same,IC50,HTC-C3,117 nM
same,IC50,LK-2,77.1 nM
same,IC50,KYSE-150 cell line,25.9 nM
same,IC50,NCI-H2228,88.3 nM
same,IC50,HOS,21.1 nM
same,IC50,769-P,10.4 nM
same,IC50,CAL-27,217 nM
same,IC50,MDA-MB-415,177 nM
O=c1cc(N2CCOCC2)oc2c(-c3cccc4c3sc3ccccc34)cccc12,IC50,NY,> 2000 nM
same,IC50,RERF-LC-MS,> 2000 nM
same,IC50,CAL-12T; cal-12t,> 2000 nM
same,IC50,SiHa,> 2000 nM
same,IC50,BFTC-905,> 2000 nM
same,IC50,NCI-H2030,> 2000 nM
same,IC50,UO-31,> 2000 nM
same,IC50,GMS-10,> 2000 nM
same,IC50,HCC1937,> 2000 nM
same,IC50,NCI-H522,> 2000 nM
same,IC50,786-0,> 2000 nM
same,IC50,SK-OV-3,> 2000 nM
same,IC50,A-375,> 2000 nM
same,IC50,SK-MEL-30,> 2000 nM
same,IC50,RPMI-2650,> 2000 nM
same,IC50,NB12,> 2000 nM
same,IC50,SW756,> 2000 nM
same,IC50,OVCAR-5,> 2000 nM
same,IC50,BHY,> 2000 nM
same,IC50,COLO-792,> 2000 nM
same,IC50,Calu-3,> 2000 nM
same,IC50,SNU-449,> 2000 nM
same,IC50,MFE-280,> 2000 nM
same,IC50,RD,> 2000 nM
same,IC50,647-V,> 2000 nM
same,IC50,VMRC-RCZ,> 2000 nM
same,IC50,HO-1-N-1,> 2000 nM
same,IC50,HN,> 2000 nM
same,IC50,SW1990,> 2000 nM
same,IC50,NCI-H596,> 2000 nM
same,IC50,COR-L105,> 2000 nM
same,IC50,HT-1376,> 2000 nM
same,IC50,NCI-H2170,> 2000 nM
same,IC50,A 172,153 nM
same,IC50,ESS-1,> 2000 nM
same,IC50,MDA-MB-231,> 2000 nM
same,IC50,CAL-54,> 2000 nM
same,IC50,23132-87,> 2000 nM
same,IC50,SW626,> 2000 nM
same,IC50,SK-HEP1,> 2000 nM
same,IC50,8505C,> 2000 nM
same,IC50,HTC-C3,> 2000 nM
same,IC50,LK-2,> 2000 nM
same,IC50,KYSE-150 cell line,> 2000 nM
same,IC50,NCI-H2228,> 2000 nM
same,IC50,D-542MG,> 2000 nM
same,IC50,HOS,> 2000 nM
same,IC50,769-P,> 2000 nM
same,IC50,CAL-27,> 2000 nM
same,IC50,MDA-MB-415,> 2000 nM
CCCS(=O)(=O)Nc1ccc(F)c(C(=O)c2c[nH]c3ncc(Cl)cc23)c1F [PLX-4720],IC50,NY,> 10000 nM
same,IC50,RERF-LC-MS,> 10000 nM
same,IC50,"CAL-12T; Homo sapiens, CAL-12T",> 10000 nM
same,IC50,SiHa,> 10000 nM
same,IC50,BFTC-905,> 10000 nM
same,IC50,NCI-H2030,> 10000 nM
same,IC50,UO-31,> 10000 nM
same,IC50,GMS-10,> 10000 nM
same,IC50,HCC1937,> 10000 nM
same,IC50,NCI-H522,> 10000 nM
same,IC50,786-0,> 10000 nM
same,IC50,SK-OV-3,> 10000 nM
same,IC50,A-375,674 nM
same,IC50,SK-MEL-30,1330 nM
same,IC50,RPMI-2650,> 10000 nM
same,IC50,NB12,> 10000 nM
same,IC50,SW756,> 10000 nM
same,IC50,OVCAR-5,> 10000 nM
same,IC50,BHY,> 10000 nM
same,IC50,COLO-792,> 10000 nM
same,IC50,Calu-3,> 10000 nM
same,IC50,SNU-449,> 10000 nM
same,IC50,MFE-280,> 10000 nM
same,IC50,RD,> 10000 nM
same,IC50,647-V,> 10000 nM
same,IC50,VMRC-RCZ,> 10000 nM
same,IC50,HO-1-N-1,> 10000 nM
same,IC50,HN,> 10000 nM
same,IC50,SW1990,> 10000 nM
same,IC50,NCI-H596,> 10000 nM
same,IC50,COR-L105,> 10000 nM
same,IC50,HT-1376,> 10000 nM
same,IC50,NCI-H2170,> 10000 nM
same,IC50,A 172,> 10000 nM
same,IC50,ESS-1,> 10000 nM
same,IC50,MDA-MB-231,> 10000 nM
same,IC50,CAL-54,> 10000 nM
same,IC50,23132-87,> 10000 nM
same,IC50,SW626,> 10000 nM
same,IC50,SK-HEP1,> 10000 nM
same,IC50,8505C,> 10000 nM
same,IC50,HTC-C3,1660 nM
same,IC50,LK-2,> 10000 nM
same,IC50,KYSE-150 cell line,> 10000 nM
same,IC50,NCI-H2228,> 10000 nM
same,IC50,D-542MG,> 10000 nM
same,IC50,HOS,> 10000 nM
same,IC50,769-P,> 10000 nM
same,IC50,CAL-27,> 10000 nM
same,IC50,MDA-MB-415,> 10000 nM
